In PMC11167047 (Cell Death Discovery, 2024) one finds residual kinase activity data, which are given here for 2 compounds.

Holding throughout (test): kinome screen (33PanQinase)
Holding throughout (format): biochemical

One assay addresses T1, STK25 (Homo sapiens, UniProt O00506).
T1 construct: purchased Reaction Biology Europe GmbH (formerly ProQinase)
As for the experimental part:
(§1) The Kinome Screening was performed by Reaction Biology Europe GmbH (http://reactionbiology.com; Freiburg i. Br., Germany).

The next assay has as its target T2, EPHA7 (Homo sapiens, UniProt Q15375).
T2 construct: purchased Reaction Biology Europe GmbH (formerly ProQinase)
As to the method: as §1

In a further assay the target is T3, MELK (Homo sapiens, UniProt Q14680).
T3 construct: purchased Reaction Biology Europe GmbH (formerly ProQinase)
T3 sequence (Q14680 whole entry): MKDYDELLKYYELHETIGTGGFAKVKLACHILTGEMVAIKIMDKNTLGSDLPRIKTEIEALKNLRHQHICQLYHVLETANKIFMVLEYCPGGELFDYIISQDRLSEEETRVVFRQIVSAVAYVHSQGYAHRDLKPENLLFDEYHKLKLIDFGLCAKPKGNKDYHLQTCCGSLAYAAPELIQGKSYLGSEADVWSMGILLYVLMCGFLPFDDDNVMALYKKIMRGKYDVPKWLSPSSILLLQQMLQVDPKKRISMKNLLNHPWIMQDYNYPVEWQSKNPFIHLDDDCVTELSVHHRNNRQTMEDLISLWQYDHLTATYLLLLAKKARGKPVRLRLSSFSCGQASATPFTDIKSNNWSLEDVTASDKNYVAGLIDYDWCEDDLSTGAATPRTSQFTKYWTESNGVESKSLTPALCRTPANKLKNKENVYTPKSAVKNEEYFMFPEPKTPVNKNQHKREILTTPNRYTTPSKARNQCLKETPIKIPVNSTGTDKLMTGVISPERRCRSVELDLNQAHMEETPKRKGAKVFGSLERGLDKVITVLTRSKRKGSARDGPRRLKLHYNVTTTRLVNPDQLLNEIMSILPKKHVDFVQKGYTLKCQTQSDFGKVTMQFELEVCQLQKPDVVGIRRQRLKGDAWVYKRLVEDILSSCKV
As for the experimental part: as §1

For a further assay, the target named is T4, AMPKα1 (Homo sapiens, UniProt Q13131).
T4 construct: purchased Reaction Biology Europe GmbH (formerly ProQinase)
T4 sequence (Q13131 10-559 limits assumed): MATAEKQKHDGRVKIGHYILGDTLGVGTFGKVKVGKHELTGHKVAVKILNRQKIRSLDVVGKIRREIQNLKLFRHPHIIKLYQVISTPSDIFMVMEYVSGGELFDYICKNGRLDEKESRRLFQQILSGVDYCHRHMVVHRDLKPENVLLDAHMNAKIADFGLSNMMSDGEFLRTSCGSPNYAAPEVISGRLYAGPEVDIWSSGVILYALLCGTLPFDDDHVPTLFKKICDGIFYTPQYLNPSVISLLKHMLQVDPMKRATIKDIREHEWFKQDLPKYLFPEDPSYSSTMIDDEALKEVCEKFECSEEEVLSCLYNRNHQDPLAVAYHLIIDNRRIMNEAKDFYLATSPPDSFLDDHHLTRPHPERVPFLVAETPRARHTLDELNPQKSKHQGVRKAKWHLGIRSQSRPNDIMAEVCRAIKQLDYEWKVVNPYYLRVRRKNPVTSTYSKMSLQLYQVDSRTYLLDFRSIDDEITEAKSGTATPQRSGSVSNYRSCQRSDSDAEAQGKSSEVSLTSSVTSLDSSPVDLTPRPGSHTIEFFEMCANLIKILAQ
As for the experimental part:
as §1

A further assay concerns the target T5, PDGFRβ (Homo sapiens, UniProt P09619).
T5 construct: purchased Reaction Biology Europe GmbH (formerly ProQinase)
As for the experimental part:
as §1

Another assay concerns the target T6, INSRR (Homo sapiens, UniProt P14616).
T6 construct: purchased Reaction Biology Europe GmbH (formerly ProQinase)
As for the experimental part: as §1

The next assay deals with T7, TXK (Homo sapiens, UniProt P42681).
T7 construct: purchased Reaction Biology Europe GmbH (formerly ProQinase)
T7 sequence (P42681 1-527): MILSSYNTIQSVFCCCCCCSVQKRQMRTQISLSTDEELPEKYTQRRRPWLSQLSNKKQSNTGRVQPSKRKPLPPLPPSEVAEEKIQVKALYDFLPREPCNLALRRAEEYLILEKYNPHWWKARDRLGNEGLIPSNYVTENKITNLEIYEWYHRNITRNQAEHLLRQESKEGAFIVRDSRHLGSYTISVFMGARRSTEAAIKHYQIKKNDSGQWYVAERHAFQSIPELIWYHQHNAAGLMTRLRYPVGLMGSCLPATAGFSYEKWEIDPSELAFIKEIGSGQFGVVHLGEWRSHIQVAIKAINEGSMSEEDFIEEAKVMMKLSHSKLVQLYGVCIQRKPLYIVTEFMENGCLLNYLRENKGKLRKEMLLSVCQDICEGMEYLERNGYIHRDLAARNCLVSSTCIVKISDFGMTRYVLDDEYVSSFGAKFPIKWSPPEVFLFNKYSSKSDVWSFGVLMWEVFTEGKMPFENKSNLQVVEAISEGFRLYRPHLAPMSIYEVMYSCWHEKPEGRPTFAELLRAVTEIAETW
As to the method: as §1

A further assay deals with T8, ITK (Homo sapiens, UniProt Q08881).
T8 construct: purchased Reaction Biology Europe GmbH (formerly ProQinase)
T8 sequence (Q08881 1-620): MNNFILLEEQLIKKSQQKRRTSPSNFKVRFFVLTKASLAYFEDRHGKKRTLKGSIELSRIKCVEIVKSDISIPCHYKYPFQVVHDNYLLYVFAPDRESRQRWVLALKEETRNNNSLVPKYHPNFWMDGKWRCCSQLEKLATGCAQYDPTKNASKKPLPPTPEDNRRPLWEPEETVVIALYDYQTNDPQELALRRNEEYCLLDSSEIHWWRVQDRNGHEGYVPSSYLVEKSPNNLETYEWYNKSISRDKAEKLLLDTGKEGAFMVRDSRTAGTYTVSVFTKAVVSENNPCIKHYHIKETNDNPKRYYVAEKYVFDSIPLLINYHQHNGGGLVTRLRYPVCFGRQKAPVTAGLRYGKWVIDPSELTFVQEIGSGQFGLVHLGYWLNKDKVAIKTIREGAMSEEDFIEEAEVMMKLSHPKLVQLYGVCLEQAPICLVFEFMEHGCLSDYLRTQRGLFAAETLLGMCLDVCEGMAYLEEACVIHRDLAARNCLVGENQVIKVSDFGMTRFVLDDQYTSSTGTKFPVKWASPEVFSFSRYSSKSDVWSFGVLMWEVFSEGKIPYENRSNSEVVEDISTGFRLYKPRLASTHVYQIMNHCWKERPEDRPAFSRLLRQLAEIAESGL
As to the method: as §1

Another assay addresses T9, PKCι (Homo sapiens, UniProt P41743).
T9 construct: purchased Reaction Biology Europe GmbH (formerly ProQinase)
T9 sequence (P41743 1-596): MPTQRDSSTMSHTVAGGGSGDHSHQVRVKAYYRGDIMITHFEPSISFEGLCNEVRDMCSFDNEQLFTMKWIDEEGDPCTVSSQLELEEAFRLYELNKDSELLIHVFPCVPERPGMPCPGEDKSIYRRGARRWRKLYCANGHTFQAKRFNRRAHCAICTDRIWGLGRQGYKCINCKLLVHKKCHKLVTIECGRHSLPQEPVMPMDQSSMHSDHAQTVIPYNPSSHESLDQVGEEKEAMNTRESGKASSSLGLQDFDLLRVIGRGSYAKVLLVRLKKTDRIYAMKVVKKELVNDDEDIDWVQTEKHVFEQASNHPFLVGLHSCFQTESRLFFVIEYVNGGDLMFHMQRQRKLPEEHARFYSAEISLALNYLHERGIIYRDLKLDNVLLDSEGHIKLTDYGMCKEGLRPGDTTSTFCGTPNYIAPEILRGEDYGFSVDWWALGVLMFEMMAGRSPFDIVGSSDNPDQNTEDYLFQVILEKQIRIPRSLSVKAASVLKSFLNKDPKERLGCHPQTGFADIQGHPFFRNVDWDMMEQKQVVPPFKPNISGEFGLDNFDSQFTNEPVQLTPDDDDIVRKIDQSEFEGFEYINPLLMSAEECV
As for the experimental part: as §1

A further assay deals with T10, RPS6KA5 (Homo sapiens, UniProt O75582).
T10 construct: purchased Reaction Biology Europe GmbH (formerly ProQinase)
T10 sequence (O75582 whole entry): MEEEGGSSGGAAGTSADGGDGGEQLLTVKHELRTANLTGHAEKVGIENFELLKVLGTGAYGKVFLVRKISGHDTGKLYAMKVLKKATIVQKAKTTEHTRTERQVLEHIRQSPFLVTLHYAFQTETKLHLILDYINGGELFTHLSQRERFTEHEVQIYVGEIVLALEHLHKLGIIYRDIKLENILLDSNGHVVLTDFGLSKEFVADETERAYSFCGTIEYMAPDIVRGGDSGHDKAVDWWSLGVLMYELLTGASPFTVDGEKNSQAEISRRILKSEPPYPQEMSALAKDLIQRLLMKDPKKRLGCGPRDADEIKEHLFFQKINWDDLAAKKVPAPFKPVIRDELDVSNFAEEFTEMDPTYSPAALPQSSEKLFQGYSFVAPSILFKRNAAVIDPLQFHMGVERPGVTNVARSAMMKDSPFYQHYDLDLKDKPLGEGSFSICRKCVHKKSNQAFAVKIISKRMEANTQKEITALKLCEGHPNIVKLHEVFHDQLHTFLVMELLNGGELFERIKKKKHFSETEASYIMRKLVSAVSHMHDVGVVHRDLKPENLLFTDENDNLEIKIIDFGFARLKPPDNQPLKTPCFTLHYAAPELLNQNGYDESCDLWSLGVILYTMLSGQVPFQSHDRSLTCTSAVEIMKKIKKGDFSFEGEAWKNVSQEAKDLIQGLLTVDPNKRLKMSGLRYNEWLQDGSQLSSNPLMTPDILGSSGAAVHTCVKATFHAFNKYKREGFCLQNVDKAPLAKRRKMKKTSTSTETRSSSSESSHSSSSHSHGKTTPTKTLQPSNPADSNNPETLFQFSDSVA
As to the method:
as §1

Each structure is given as a SMILES string.

T6 sequence (P14616 27-1297): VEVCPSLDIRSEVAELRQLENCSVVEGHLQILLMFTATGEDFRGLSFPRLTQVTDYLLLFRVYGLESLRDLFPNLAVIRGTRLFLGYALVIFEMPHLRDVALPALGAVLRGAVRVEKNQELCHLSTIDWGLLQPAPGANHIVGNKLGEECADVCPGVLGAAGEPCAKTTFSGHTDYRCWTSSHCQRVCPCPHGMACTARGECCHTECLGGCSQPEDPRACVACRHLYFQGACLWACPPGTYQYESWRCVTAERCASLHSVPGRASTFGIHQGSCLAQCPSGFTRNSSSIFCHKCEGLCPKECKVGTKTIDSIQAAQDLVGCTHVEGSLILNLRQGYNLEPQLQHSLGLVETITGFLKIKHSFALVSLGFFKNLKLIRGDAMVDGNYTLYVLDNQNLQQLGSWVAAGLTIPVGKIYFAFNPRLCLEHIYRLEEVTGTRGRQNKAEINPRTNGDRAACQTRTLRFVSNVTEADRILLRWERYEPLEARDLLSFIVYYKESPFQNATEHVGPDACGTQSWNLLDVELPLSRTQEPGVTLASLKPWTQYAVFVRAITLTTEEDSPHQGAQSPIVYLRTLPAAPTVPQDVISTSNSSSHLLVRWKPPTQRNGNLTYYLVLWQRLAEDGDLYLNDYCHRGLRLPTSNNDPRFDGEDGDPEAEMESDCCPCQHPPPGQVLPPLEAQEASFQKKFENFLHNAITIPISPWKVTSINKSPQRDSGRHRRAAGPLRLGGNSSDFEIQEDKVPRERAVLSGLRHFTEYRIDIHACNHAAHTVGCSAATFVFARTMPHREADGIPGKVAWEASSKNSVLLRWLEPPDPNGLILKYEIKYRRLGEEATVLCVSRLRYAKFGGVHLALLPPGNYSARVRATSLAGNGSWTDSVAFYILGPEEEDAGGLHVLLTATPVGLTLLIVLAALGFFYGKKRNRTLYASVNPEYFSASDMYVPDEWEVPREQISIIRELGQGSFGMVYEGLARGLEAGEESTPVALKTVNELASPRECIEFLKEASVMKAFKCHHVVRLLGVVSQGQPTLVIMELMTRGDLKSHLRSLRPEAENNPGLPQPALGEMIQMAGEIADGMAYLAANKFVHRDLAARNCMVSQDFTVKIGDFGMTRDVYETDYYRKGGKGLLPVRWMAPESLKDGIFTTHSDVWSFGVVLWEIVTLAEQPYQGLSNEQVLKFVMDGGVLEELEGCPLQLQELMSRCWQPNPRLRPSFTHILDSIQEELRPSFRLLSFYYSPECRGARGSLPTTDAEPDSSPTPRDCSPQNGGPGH
T1 sequence (O00506 whole entry): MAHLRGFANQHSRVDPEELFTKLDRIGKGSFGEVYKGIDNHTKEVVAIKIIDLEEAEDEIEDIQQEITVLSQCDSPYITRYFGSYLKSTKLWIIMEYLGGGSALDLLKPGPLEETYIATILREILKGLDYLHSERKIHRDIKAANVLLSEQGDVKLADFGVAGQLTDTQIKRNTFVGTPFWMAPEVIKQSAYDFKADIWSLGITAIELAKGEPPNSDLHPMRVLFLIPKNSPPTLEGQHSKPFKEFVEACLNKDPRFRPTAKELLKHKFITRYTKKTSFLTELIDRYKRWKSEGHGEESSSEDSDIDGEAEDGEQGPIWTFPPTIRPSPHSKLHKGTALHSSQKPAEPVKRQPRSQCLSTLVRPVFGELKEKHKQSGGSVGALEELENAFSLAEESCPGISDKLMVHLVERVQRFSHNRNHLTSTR
T5 sequence (P09619 33-1106): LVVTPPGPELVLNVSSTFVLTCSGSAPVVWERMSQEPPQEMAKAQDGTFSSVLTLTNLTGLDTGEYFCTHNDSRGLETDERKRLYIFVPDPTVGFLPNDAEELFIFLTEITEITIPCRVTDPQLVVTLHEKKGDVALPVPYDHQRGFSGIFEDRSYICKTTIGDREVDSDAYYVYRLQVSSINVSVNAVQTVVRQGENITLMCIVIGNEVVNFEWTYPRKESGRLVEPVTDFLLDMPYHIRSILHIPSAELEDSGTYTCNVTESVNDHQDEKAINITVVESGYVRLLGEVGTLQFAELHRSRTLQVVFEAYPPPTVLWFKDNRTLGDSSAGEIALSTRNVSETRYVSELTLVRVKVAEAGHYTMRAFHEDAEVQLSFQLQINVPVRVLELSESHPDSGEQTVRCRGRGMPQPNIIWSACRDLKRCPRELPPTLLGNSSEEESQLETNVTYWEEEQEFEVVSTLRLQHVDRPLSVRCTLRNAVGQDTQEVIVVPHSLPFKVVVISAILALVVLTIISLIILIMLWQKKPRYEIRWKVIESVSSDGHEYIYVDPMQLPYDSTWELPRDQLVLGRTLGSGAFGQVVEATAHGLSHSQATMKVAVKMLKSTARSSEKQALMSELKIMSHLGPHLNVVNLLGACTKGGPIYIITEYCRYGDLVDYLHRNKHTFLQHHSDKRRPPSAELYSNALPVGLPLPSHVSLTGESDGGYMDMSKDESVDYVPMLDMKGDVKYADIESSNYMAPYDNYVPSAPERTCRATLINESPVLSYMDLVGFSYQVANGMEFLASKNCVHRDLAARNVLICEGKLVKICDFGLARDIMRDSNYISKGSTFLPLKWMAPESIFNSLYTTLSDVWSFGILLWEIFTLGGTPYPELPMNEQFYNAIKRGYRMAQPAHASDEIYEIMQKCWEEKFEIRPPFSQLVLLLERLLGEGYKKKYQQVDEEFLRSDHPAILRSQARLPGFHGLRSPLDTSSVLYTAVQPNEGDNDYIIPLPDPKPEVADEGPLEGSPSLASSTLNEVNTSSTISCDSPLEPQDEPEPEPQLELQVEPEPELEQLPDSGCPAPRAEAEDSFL

On to `c1ccc(CNc2cc(-c3c[nH]c4ncccc34)ccn2)cc1` [meriolin 36], for which the residual kinase activity on STK25 (0.3 µM) is given as 33 % of control; at STK25 (3 µM), 6 % of control; at EPHA7 (0.3 µM) it was 131 % of control; on EPHA7 (3 µM) it was 93 % of control; on MELK (0.3 µM), 36 % of control; at MELK (3 µM), 9 % of control. Moreover, the residual kinase activity at AMPKα1 (0.3 µM) is 57 % of control; on AMPKα1 (3 µM) it was 9 % of control; on PDGFRβ (0.3 µM), 24 % of control; on PDGFRβ (3 µM), 4 % of control; on INSRR (0.3 µM), 85 % of control; at INSRR (3 µM) it was 39 % of control. Moreover, the residual kinase activity at TXK (0.3 µM) is given as 84 % of control; on TXK (3 µM), 35 % of control; at ITK (0.3 µM), 77 % of control; at ITK (3 µM) it was 16 % of control; at PKCι (0.3 µM) it was 75 % of control; on PKCι (3 µM), 32 % of control. Further, the residual kinase activity on RPS6KA5 (0.3 µM) is on record as 46 % of control; on RPS6KA5 (3 µM), 15 % of control.
As for `COc1ccnc2[nH]cc(-c3cc(N)nc(N)c3)c12` [meriolin 16], the residual kinase activity was 99 % of control at STK25 (0.03 µM); 81 % of control on STK25 (0.3 µM); 122 % of control on EPHA7 (0.03 µM); 107 % of control at EPHA7 (0.3 µM); 74 % of control at MELK (0.03 µM); 14 % of control on MELK (0.3 µM). The residual kinase activity at AMPKα1 (0.03 µM) is 108 % of control; at AMPKα1 (0.3 µM), 78 % of control; at PDGFRβ (0.03 µM), 93 % of control; at PDGFRβ (0.3 µM) it was 75 % of control; at INSRR (0.03 µM), 97 % of control; at INSRR (0.3 µM) it was 96 % of control. Besides, the residual kinase activity is 100 % of control on TXK (0.03 µM); 90 % of control on TXK (0.3 µM); 105 % of control at ITK (0.03 µM); 88 % of control on ITK (0.3 µM); 105 % of control at PKCι (0.03 µM); 94 % of control on PKCι (0.3 µM). The residual kinase activity is on record as 89 % of control at RPS6KA5 (0.03 µM) and 82 % of control at RPS6KA5 (0.3 µM).
